What was measured:
Assay type in all cases: cell-based
human CXCR3A = human CXCR3A (Homo sapiens (Human), UniProt P49682); assay: FLIPR assay (CXCL10-induced calcium signal); settings: CHO-K1 cells expressing human CXCR3A coupled to Galpha(16); CXCL10 agonist 20 nM; mean values
Description: (§1) In the case where IC50 values have been determined several times for the same compound, mean values are given.

CXCR3 = CXCR3 (Homo sapiens (Human), UniProt P49682); assay: Receptor internalization assay in human whole blood (CXCR3 surface expression on CD4 positive cells, CXCL10); settings: final CXCL10 9 nM, 30 min at 37° C., mean values
Protocol: Diluted compounds are then mixed with an equal volume of CXCL10 (Peprotech) diluted in PBS. Anticoagulated venous human whole blood is added to the mixture, which is then incubated in a CO2 incubator at 37° C. to allow for ligand mediated receptor internalization (final CXCL10 concentration is 9 nM). After 30 min, the blood is mixed with fluorescently labeled CXCR3 and CD4 specific antibodies (Becton Dickinson) and incubated on ice for 10 minutes. Samples are then mixed with BD FACS Lysing Solution (Becton Dickinson) in order to eliminate red blood cells. After washing the cells with PBS containing 0.5% BSA, the samples are then analyzed in a flow cytometer (FACS Canto II, Becton Dickinson). For data analysis using FACSDiva software (Becton Dickinson), the mean fluorescence corresponding to CXCR3 cell surface expression was determined on CD4 positive cells. The program GraphPad Prism or similar software is used to fit the data to a single site dose response curve and to calculate IC50 values.
as §1

hERG K channel = hERG K channel (Homo sapiens (Human), UniProt Q12809); assay: hERG Q-Patch assay; settings: CHO cells expressing hERG, K+ tail current 3 min after application, mean of two or three experiments
Protocol: Compounds are evaluated for block of the hERG K channel using CHO cells stably expressing the hERG gene (accession number U04270, bSys, Witterswil, Switzerland) and the QPatch robotic platform (Sophion, Ballerup, Denmark) in single-cell mode at room temperature. Cells are grown in culture flasks at 37° C. in 5% CO2, in culture medium (Ham's F-12 Nutrient Mixture, Invitrogen 21765-029) supplemented with 9% (v/v) fetal calf serum, 0.9% Penicillin/Streptomycin (10,000 U/mL, Invitrogen 15140148), 100 μg/mL Hygromycin B (Invitrogen 10687010). When the cells are ˜80% confluent (every 2-3 days), they are either split for further culture or used for electrophysiology. For further culture, cells are detached with 0.25% Trypsin EDTA solution (Invitrogen 25200-056) and a fraction of the cells (10-30%) is reseeded in culture medium. For electrophysiology, on the experimental day, cells are detached with 0.25% Trypsin EDTA solution and all cells are suspended in suspension medium (293 SFM II, Invitrogen 11686-029) supplemented with 20 mM HEPES and 0.04 mg/mL Trypsin inhibitor. Cells are kept in suspension medium at 32-35° C. in the QPatch robot until use, at which time aliquots are transferred to the extracellular solution (in mM: NaCl 150; KCl 4; CaCl2 1.2; MgCl2 1; HEPES 10; pH 7.4 with NaOH) containing 0.3% v/v DMSO and applied to the test plates. K^+ currents are measured with the patch-voltage-clamp technique in the whole-cell configuration with the internal solution (in mM: KCl, 140; NaCl, 10; MgCl2, 1; HEPES, 10: EGTA, 5; pH=7.2 with KOH). Currents are low-pass filtered using the internal Bessel filter of the QPatch robot with a cut-off frequency of 2 kHz and are digitized at 10 kHz. K^+ tail currents are produced from a holding voltage of −80 mV by a 500-ms depolarization to +20 mV followed by a 500-ms repolarization to −40 mV; tail current amplitudes are measured at the end of the repolarization to −40 mV. The pulse pattern is repeated every 10 sec during the experiment, baseline K^+ current is measured after 3 min in extracellular solution, test-solution containing compound is then applied, and K^+ current in presence of compound is measured 3 minutes after application to the cells. The respective test-solution is prepared by (1) dissolving the test-compound in pure DMSO, (2) diluting this DMSO solution in extracellular solution, and (3) adding further DMSO, such that the final test-solution has a concentration of either 300 nM or 3000 nM of the test-compound and contains 0.3% v/v DMSO. Compound effects are quantified as % block by dividing the current in presence of compound by the baseline current; two or three experiments are performed for each compound and the final value represents the mean of the results of each experiment.

hERG K channel, sequence (Q12809 whole entry): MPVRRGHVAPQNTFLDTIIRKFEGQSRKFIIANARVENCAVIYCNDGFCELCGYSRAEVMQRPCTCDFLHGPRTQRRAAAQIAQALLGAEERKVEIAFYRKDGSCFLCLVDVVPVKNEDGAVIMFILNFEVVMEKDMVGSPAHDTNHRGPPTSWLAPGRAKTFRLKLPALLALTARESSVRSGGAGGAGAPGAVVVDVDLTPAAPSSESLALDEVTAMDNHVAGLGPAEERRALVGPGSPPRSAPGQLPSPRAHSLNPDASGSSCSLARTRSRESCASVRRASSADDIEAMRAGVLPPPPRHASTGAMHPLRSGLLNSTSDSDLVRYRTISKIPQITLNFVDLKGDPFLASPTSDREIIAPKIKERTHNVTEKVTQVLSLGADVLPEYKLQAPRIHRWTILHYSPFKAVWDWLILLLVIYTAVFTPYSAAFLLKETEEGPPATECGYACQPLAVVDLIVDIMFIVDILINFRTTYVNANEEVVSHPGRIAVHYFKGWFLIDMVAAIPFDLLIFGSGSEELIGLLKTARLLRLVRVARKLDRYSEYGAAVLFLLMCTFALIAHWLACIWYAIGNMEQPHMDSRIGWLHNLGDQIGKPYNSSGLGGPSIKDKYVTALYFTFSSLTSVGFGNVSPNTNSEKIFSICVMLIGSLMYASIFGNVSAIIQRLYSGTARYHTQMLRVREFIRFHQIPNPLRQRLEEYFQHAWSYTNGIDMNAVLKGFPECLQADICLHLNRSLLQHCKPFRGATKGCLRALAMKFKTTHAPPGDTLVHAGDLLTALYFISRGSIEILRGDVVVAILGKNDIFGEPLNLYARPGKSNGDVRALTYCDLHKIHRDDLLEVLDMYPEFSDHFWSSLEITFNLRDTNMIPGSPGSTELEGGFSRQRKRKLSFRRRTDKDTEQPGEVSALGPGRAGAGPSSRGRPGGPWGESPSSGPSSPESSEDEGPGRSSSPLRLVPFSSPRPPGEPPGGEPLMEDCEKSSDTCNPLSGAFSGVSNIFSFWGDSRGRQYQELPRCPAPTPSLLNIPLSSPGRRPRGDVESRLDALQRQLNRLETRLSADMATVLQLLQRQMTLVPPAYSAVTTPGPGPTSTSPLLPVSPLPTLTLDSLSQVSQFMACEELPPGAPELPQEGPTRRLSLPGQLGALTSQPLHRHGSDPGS
CXCR3, sequence (P49682 whole entry): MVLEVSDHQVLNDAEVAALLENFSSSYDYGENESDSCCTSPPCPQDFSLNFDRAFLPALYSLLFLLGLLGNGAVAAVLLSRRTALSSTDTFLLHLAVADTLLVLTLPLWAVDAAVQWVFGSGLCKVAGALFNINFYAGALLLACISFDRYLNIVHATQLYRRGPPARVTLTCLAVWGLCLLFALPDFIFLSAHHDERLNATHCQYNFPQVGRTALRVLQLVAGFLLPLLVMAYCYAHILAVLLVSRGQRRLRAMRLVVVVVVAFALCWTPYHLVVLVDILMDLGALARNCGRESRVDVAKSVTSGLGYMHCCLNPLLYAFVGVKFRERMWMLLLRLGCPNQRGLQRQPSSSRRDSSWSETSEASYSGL
human CXCR3A, sequence (P49682 whole entry): as above

Row | Compound | IC50 (human CXCR3A) | IC50 (CXCR3) | % block (hERG K channel; concentration 300 nM) | % block (hERG K channel; concentration 3000 nM)
1 | Cc1nc(-c2ncn(CC(=O)N3CCN(c4sc(C(F)(F)F)nc4-c4cnc(C(F)(F)F)nc4)C[C@@H]3CO)n2)no1 [Example 18, 1-{(R)-2-Hydroxymethyl-4-[2-trifluoromethyl-4-(2-trifluoromethyl-pyrimidin-5-yl)-thiazol-5-yl]-piperazin-1-yl}-2-[3-(5-methyl-[1,2,4]oxadiazol-3-yl)-[1,2,4]triazol-1-yl]-ethanone] | 510 nM | 6500 nM | 6% | 13%
2 | CCc1ccn(CC(=O)N2CCN(c3sc(C(F)(F)F)nc3-c3cnc(C(F)(F)F)nc3)C[C@H]2CCO)n1 [Example 40, 2-(3-Ethyl-pyrazol-1-yl)-1-{(R)-2-(2-hydroxy-ethyl)-4-[2-trifluoromethyl-4-(2-trifluoromethyl-pyrimidin-5-yl)-thiazol-5-yl]-piperazin-1-yl}-ethanone] | 1.6 nM | 32.7 nM | 5% | 47%
3 | O=C(Cn1cnc(C(F)(F)F)n1)N1CCN(c2sc(C(F)(F)F)nc2-c2cnc(C3CC3)nc2)C[C@H]1CO [Example 9, 1-{(S)-4-[4-(2-Cyclopropyl-pyrimidin-5-yl)-2-trifluoromethyl-thiazol-5-yl]-2-hydroxymethyl-piperazin-1-yl}-2-(3-trifluoromethyl-[1,2,4]triazol-1-yl)-ethanone] | 1.3 nM | 1520 nM | 8% | 24%
4 | Cc1ccn(CC(=O)N2CCN(c3sc(C(F)(F)F)nc3-c3cnc(C(F)(F)F)nc3)C[C@H]2CCO)n1 [Example 39, 1-{(R)-2-(2-Hydroxy-ethyl)-4-[2-trifluoromethyl-4-(2-trifluoromethyl-pyrimidin-5-yl)-thiazol-5-yl]-piperazin-1-yl}-2-(3-methyl-pyrazol-1-yl)-ethanone] | 1 nM | 46.3 nM | 1% | 32%
5 | Cc1ncn(CC(=O)N2CCN(c3sc(C(F)(F)F)nc3-c3cnc(C(F)(F)F)nc3)C[C@@H]2CO)n1 [Example 16, 1-{(R)-2-Hydroxymethyl-4-[2-trifluoromethyl-4-(2-trifluoromethyl-pyrimidin-5-yl)-thiazol-5-yl]-piperazin-1-yl}-2-(3-methyl-[1,2,4]triazol-1-yl)-ethanone] | 3.9 nM | 542 nM | 1% | 1%
6 | CC(C)c1ncn(CC(=O)N2CCN(c3sc(C(F)(F)F)nc3-c3cnc(C(F)(F)F)nc3)C[C@@H]2CO)n1 [Example 11, 1-{(R)-2-Hydroxymethyl-4-[2-trifluoromethyl-4-(2-trifluoromethyl-pyrimidin-5-yl)-thiazol-5-yl]-piperazin-1-yl}-2-(3-isopropyl-[1,2,4]triazol-1-yl)-ethanone] | 3.4 nM | 339 nM | 5% | 11%
7 | CCOc1ncc(-c2nc(C(F)(F)F)sc2N2CCN(C(=O)Cn3nc(C)nc3C)[C@H](CO)C2)cn1 [Example 7, 2-(3,5-Dimethyl-[1,2,4]triazol-1-yl)-1-{(S)-4-[4-(2-ethoxy-pyrimidin-5-yl)-2-trifluoromethyl-thiazol-5-yl]-2-hydroxymethyl-piperazin-1-yl}-ethanone] | 3.1 nM | 2270 nM | 24% | 45%
8 | CCc1ncnn1CC(=O)N1CCN(c2sc(C(F)(F)F)nc2-c2cnc(C(F)(F)F)nc2)C[C@H]1CCO [Example 33, 2-(5-Ethyl-[1,2,4]triazol-1-yl)-1-{(R)-2-(2-hydroxy-ethyl)-4-[2-trifluoromethyl-4-(2-trifluoromethyl-pyrimidin-5-yl)-thiazol-5-yl]-piperazin-1-yl}-ethanone] | 27 nM | 652 nM | −5% | 6%
9 | Cc1ncnn1CC(=O)N1CCN(c2sc(C(F)(F)F)nc2-c2cnc(C(F)(F)F)nc2)C[C@H]1CCO [Example 36, 1-{(R)-2-(2-Hydroxy-ethyl)-4-[2-trifluoromethyl-4-(2-trifluoromethyl-pyrimidin-5-yl)-thiazol-5-yl]-piperazin-1-yl}-2-(5-methyl-[1,2,4]triazol-1-yl)-ethanone] | 8 nM | 451 nM | 10% | 19%
10 | O=C(Cn1ccc(C2CC2)n1)N1CCN(c2sc(C(F)(F)F)nc2-c2cnc(C(F)(F)F)nc2)C[C@H]1CO [Example 44, 2-(3-Cyclopropyl-pyrazol-1-yl)-1-{(S)-2-hydroxymethyl-4-[2-trifluoromethyl-4-(2-trifluoromethyl-pyrimidin-5-yl)-thiazol-5-yl]-piperazin-1-yl}-ethanone] | 0.38 nM | 76 nM | 5% | 34%
11 | CC(C)c1ncn(CC(=O)N2CCN(c3sc(C(F)(F)F)nc3-c3cnc(C(F)(F)F)nc3)C[C@H]2CCO)n1 [Example 34, 1-{(R)-2-(2-Hydroxy-ethyl)-4-[2-trifluoromethyl-4-(2-trifluoromethyl-pyrimidin-5-yl)-thiazol-5-yl]-piperazin-1-yl}-2-(3-isopropyl-[1,2,4]triazol-1-yl)-ethanone] | 4.5 nM | 84.8 nM | 10% | 34%
12 | CC(=O)c1ncn(CC(=O)N2CCN(c3sc(C(F)(F)F)nc3-c3cnc(C(F)(F)F)nc3)C[C@@H]2CO)n1 [Example 20, 2-(3-Acetyl-[1,2,4]triazol-1-yl)-1-{(R)-2-hydroxymethyl-4-[2-trifluoromethyl-4-(2-trifluoromethyl-pyrimidin-5-yl)-thiazol-5-yl]-piperazin-1-yl}-ethanone] | 6.4 nM | 2380 nM | 2% | 3%
13 | O=C(Cn1ccc(C2CC2)n1)N1CCN(c2sc(C(F)(F)F)nc2-c2cnc(C(F)(F)F)nc2)C[C@H]1CCO [Example 41, 2-(3-Cyclopropyl-pyrazol-1-yl)-1-{(R)-2-(2-hydroxy-ethyl)-4-[2-trifluoromethyl-4-(2-trifluoromethyl-pyrimidin-5-yl)-thiazol-5-yl]-piperazin-1-yl}-ethanone] | 0.45 nM | 30.2 nM | 12% | 60%
14 | CC(C)c1ncn(CC(=O)N2CCN(c3sc(C(F)(F)F)nc3-c3cnc(C(F)(F)F)nc3)C[C@H]2CO)n1 [Example 4, 1-{(S)-2-Hydroxymethyl-4-[2-trifluoromethyl-4-(2-trifluoromethyl-pyrimidin-5-yl)-thiazol-5-yl]-piperazin-1-yl}-2-(3-isopropyl-[1,2,4]triazol-1-yl)-ethanone] | 1.8 nM | 283 nM | 4% | 13%
15 | Cc1ccn(CC(=O)N2CCN(c3sc(C(F)(F)F)nc3-c3cnc(C(F)(F)F)nc3)C[C@@H]2CO)n1 [Example 22, 1-{(R)-2-Hydroxymethyl-4-[2-trifluoromethyl-4-(2-trifluoromethyl-pyrimidin-5-yl)-thiazol-5-yl]-piperazin-1-yl}-2-(3-methyl-pyrazol-1-yl)-ethanone] | 1.6 nM | 105 nM | 4% | 15%

Source: patent publication US10053457B2, “Hydroxyalkyl-piperazine derivatives as CXCR3 receptor modulators” (IDORSIA PHARMACEUTICALS LTD, priority 2015, dated 2018)
